Measured values published in publication PMC2467525 (Acta Crystallographica Section D: Biological Crystallography, 2008).

Biological target: PvlArgDC (pyruvoyl-dependent arginine decarboxylase) (Methanocaldococcus jannaschii, UniProt Q57764)
Assay: X-ray crystal structure, […] A
Format: binding
Details: cocrystallized with 1-2 mM arginine, pH 6.7-7.3, 295 K; agmatine in all six active sites

PvlArgDC (pyruvoyl-dependent arginine decarboxylase), sequence (Q57764 53-165): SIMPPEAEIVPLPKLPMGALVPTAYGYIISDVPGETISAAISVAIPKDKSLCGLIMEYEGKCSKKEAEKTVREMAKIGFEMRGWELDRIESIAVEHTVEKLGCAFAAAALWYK
PvlArgDC (pyruvoyl-dependent arginine decarboxylase), sequence (Q57764 1-52): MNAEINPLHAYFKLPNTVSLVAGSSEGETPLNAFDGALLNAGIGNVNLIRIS

Compound: N=C(N)NCCCCN [agmatine]
- X-ray crystal structure, 2.0 A: all six protomers were fully processed and contained the product agmatine at the active site
